What all share (test): Bliss excess, mean over the matrix (fraction); higher = more synergy
In assay [1] the test system is NCI-H1693 (Lung Adenocarcinoma). An outline of the steps:
(§1)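 Cell lines in DMEM/F12 or RPMI with 10% FBS were plated in 1536-well plates, held 24 hours at 37°C, 5% CO2, then given two-drug dose matrices for 72 hours (DMSO typically 0.2%). Viability was read by CellTiter-Glo 2.0 luminescence and scaled as inhibition from 0 (vehicle wells) to 1 (blank wells). Combination Emax is the second-highest inhibition in the matrix; Bliss excess is observed combination effect minus expected EA + EB − EA·EB, EA and EB being single-agent effects.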

The test system of assay [2] is PANC-10-05 (Pancreatic Carcinoma). The essentials: as §1
The test system of another assay is 8-MG-BA (Glioblastoma). The essentials:
as §1

Another assay deals with GI-ME-N (Neuroblastoma). The essentials:
as §1

For the next assay, the system named is U-2-OS (Osteosarcoma). An outline of the steps:
as §1

The test system of another assay is ARH-77 (Non-Cancerous). An outline of the steps:
as §1

Data on ten molecules can be found in the supplement of paper PMC11061612.

On to `CN(C)CCCOc1ccc(-c2ccc3ncc4c(c3c2)n(C2CCOCC2)c(=O)n4C)cn1` [AZD0156] + C=CCn1c(=O)c2cnc(Nc3ccc(N4CCN(C)CC4)cc3)nc2n1-c1cccc(C(C)(C)O)n1 [AZD1775] (first compound max 1 µM, partner max 1 µM), for which the Bliss excess in assay [1] was -0.0242; in assay [2], -0.0519; in the assay on 8-MG-BA (Glioblastoma) it was -0.0587; in the assay on GI-ME-N (Neuroblastoma), -0.0452; in the assay with U-2-OS (Osteosarcoma), 0.0036; with ARH-77 (Non-Cancerous), -0.0207.
Consider `CN(C)CCCOc1ccc(-c2ccc3ncc4c(c3c2)n(C2CCOCC2)c(=O)n4C)cn1` [AZD0156] + CCN(CCO)CCCOc1ccc2c(Nc3cc(CC(=O)Nc4cccc(F)c4)[nH]n3)ncnc2c1 [AZD2811] (first compound max 1 µM, 7x7, partner max 1 µM), for which the Bliss excess in assay [1] was -0.0274; in assay [2], -0.0169; in the assay with 8-MG-BA (Glioblastoma), -0.0033; in the assay with GI-ME-N (Neuroblastoma), -0.0488; in the assay with U-2-OS (Osteosarcoma), -0.0148; in the assay with ARH-77 (Non-Cancerous) it was 0.0216.
Take `CN(C)CCCOc1ccc(-c2ccc3ncc4c(c3c2)n(C2CCOCC2)c(=O)n4C)cn1` [AZD0156] + C[C@@H]1COCCN1C2=NC(=NC(=C2)C3(CC3)[S@](=N)(=O)C)C4=C5C=CNC5=NC=C4 [AZD6738] (first compound max 1 µM, 7x7, partner max 10 µM): the Bliss excess in assay [1] was -0.0424; in assay [2], -0.0415; in the assay with 8-MG-BA (Glioblastoma) it was 0.0389; with GI-ME-N (Neuroblastoma), -0.015; with U-2-OS (Osteosarcoma), 0.0445; in the assay on ARH-77 (Non-Cancerous) it was 0.0673.
Take `C=CCn1c(=O)c2cnc(Nc3ccc(N4CCN(C)CC4)cc3)nc2n1-c1cccc(C(C)(C)O)n1` [AZD1775] + C[C@@H]1COCCN1C2=NC(=NC(=C2)C3(CC3)[S@](=N)(=O)C)C4=C5C=CNC5=NC=C4 [AZD6738] (first compound max 1 µM, partner max 10 µM): the Bliss excess in assay [1] is -0.0084; in assay [2] it was -0.0611; in the assay with 8-MG-BA (Glioblastoma) it was -0.032; with GI-ME-N (Neuroblastoma) it was -0.0397; in the assay on U-2-OS (Osteosarcoma), 0.0364; with ARH-77 (Non-Cancerous), 0.0324.
Take `C=CCn1c(=O)c2cnc(Nc3ccc(N4CCN(C)CC4)cc3)nc2n1-c1cccc(C(C)(C)O)n1` [AZD1775] + O=C(c1cc(Cc2n[nH]c(=O)c3ccccc23)ccc1F)N1CCN(C(=O)C2CC2)CC1 [Olaparib] (first compound max 1 µM, partner max 10 µM): the Bliss excess in assay [1] is -0.0137; in assay [2], -0.0871; in the assay with 8-MG-BA (Glioblastoma), -0.0163; in the assay on GI-ME-N (Neuroblastoma) it was -0.0434; in the assay on U-2-OS (Osteosarcoma), -0.0258; with ARH-77 (Non-Cancerous) it was -0.004.
Turning to `CCN(CCO)CCCOc1ccc2c(Nc3cc(CC(=O)Nc4cccc(F)c4)[nH]n3)ncnc2c1` [AZD2811] + C=CCn1c(=O)c2cnc(Nc3ccc(N4CCN(C)CC4)cc3)nc2n1-c1cccc(C(C)(C)O)n1 [AZD1775] (first compound max 1 µM, partner max 1 µM), the Bliss excess in assay [1] is 0.0099; in assay [2] it was -0.021; in the assay with 8-MG-BA (Glioblastoma), 0.0299; in the assay with GI-ME-N (Neuroblastoma), -0.0112; with U-2-OS (Osteosarcoma), -0.0039; in the assay on ARH-77 (Non-Cancerous), 0.024.
For the molecule `COc1nnc2ccc(N3CCC(c4ccc(OCCN5CCN(C)C(=O)[C@H]5C)cc4)CC3)nn12` [AZD5153] + CN(CC[C@H](CSC1=CC=CC=C1)NC2=C(C=C(C=C2)S(=O)(=O)NC(=O)C3=CC=C(C=C3)N4CCC(CC4)[C@H](C5=CC=CC=C5C6=CC=C(C=C6)Cl)O)S(=O)(=O)C(F)(F)F)CCO [AZD4320] (first compound max 1 µM, 7x7, partner max 1 µM), the Bliss excess is 0.04 in assay [1]; 0.002 in the assay on 8-MG-BA (Glioblastoma); 0.0077 in the assay with GI-ME-N (Neuroblastoma); 0.0178 with U-2-OS (Osteosarcoma); -0.019 in the assay on ARH-77 (Non-Cancerous).
For `CC(=O)c1c(C)c2cnc(Nc3ccc(N4CCNCC4)cn3)nc2n(C2CCCC2)c1=O` [Palbociclib] + CN(CC[C@H](CSC1=CC=CC=C1)NC2=C(C=C(C=C2)S(=O)(=O)NC(=O)C3=CC=C(C=C3)N4CCC(CC4)[C@H](C5=CC=CC=C5C6=CC=C(C=C6)Cl)O)S(=O)(=O)C(F)(F)F)CCO [AZD4320] (first compound max 10 µM, 7x7, partner max 1 µM), the Bliss excess in assay [1] was -0.0313; with 8-MG-BA (Glioblastoma), -0.001; in the assay on GI-ME-N (Neuroblastoma), -0.0771; in the assay with U-2-OS (Osteosarcoma) it was -0.0727; in the assay on ARH-77 (Non-Cancerous), -0.0498.
For `CCc1c2c(nc3ccc(O)cc13)-c1cc3c(c(=O)n1C2)COC(=O)[C@]3(O)CC` [SN-38] + O=C(c1cc(Cc2n[nH]c(=O)c3ccccc23)ccc1F)N1CCN(C(=O)C2CC2)CC1 [Olaparib] (first compound max 0.3 µM, 7x7, partner max 10 µM), the Bliss excess is 0.0059 in assay [2]; 0.0671 in the assay on 8-MG-BA (Glioblastoma); 0.0672 with GI-ME-N (Neuroblastoma); 0.0159 in the assay with U-2-OS (Osteosarcoma); 0.0446 in the assay on ARH-77 (Non-Cancerous).
As for `C[C@@H](c1ccc2nccn2c1)n1nnc2ncc(-c3cnn(C)c3)nc21` [Savolitinib] + CN(CC[C@H](CSC1=CC=CC=C1)NC2=C(C=C(C=C2)S(=O)(=O)NC(=O)C3=CC=C(C=C3)N4CCC(CC4)[C@H](C5=CC=CC=C5C6=CC=C(C=C6)Cl)O)S(=O)(=O)C(F)(F)F)CCO [AZD4320] (first compound max 1 µM, 7x7, partner max 1 µM), the Bliss excess in assay [1] is -0.0491; in the assay on 8-MG-BA (Glioblastoma), -0.0399; in the assay with GI-ME-N (Neuroblastoma), -0.0699; in the assay with U-2-OS (Osteosarcoma) it was -0.0128; in the assay on ARH-77 (Non-Cancerous) it was -0.0322.
